Reference: PubChem BioAssay AID1963850 (Molecular Pharmacology Branch, DTP, NCI, 2024)

Tested on: 192522-019-R-J2-PDC complex tumor spheroid viability
Experiment: Anticancer human tumor 192522-019-R-J2-PDC patient-derived colon adenocarcinoma cell line growth inhibition [POLQ]
Conditions: for IC50: curve of first compound; for viability, T/C: stronger effect = lower value
Procedure, shortened: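 Complex spheroid viability model combining PDC tumour cells with endothelial (HUVEC) and MSC stromal cells. Novobiocin, ART-558 or RP6685 were tested singly and in combination with standard and investigational anticancer drugs. Each was titrated in half-log steps from near clinical Cmax, or from 10 microM where Cmax was unknown.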

[1] = second compound 0.0316 µM, first compound 0.0316 µM
[2] = second compound 0.0316 µM, first compound 0.1 µM
[3] = second compound 0.0316 µM, first compound 0.316 µM
[4] = second compound 0.0316 µM, first compound 1 µM
[5] = second compound 0.0316 µM, first compound 3.16 µM
[6] = second compound 0.0316 µM, first compound 10 µM
[7] = second compound 0.1 µM, first compound 0.0316 µM
[8] = second compound 0.1 µM, first compound 0.1 µM
[9] = second compound 0.1 µM, first compound 0.316 µM
[10] = second compound 0.1 µM, first compound 1 µM
[11] = second compound 0.1 µM, first compound 3.16 µM
[12] = second compound 0.1 µM, first compound 10 µM
[13] = second compound 0.316 µM, first compound 0.0316 µM
[14] = second compound 0.316 µM, first compound 0.1 µM
[15] = second compound 0.316 µM, first compound 0.316 µM
[16] = second compound 0.316 µM, first compound 1 µM
[17] = second compound 0.316 µM, first compound 3.16 µM
[18] = second compound 0.316 µM, first compound 10 µM
[19] = second compound 1 µM, first compound 0.0316 µM
[20] = second compound 1 µM, first compound 0.1 µM
[21] = second compound 1 µM, first compound 0.316 µM
[22] = second compound 1 µM, first compound 1 µM
[23] = second compound 1 µM, first compound 3.16 µM
[24] = second compound 1 µM, first compound 10 µM
[25] = second compound 3.16 µM, first compound 0.0316 µM
[26] = second compound 3.16 µM, first compound 0.1 µM
[27] = second compound 3.16 µM, first compound 0.316 µM
[28] = second compound 3.16 µM, first compound 1 µM
[29] = second compound 3.16 µM, first compound 3.16 µM
[30] = second compound 3.16 µM, first compound 10 µM
[31] = second compound 10 µM, first compound 0.0316 µM
[32] = second compound 10 µM, first compound 0.1 µM
[33] = second compound 10 µM, first compound 0.316 µM
[34] = second compound 10 µM, first compound 1 µM
[35] = second compound 10 µM, first compound 3.16 µM
[36] = second compound 10 µM, first compound 10 µM
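Also: spheroids exposed to drugs for seven days before reading.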
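For viability, T/C in this document: 100% = DMSO vehicle control viability in luminescence.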

CC1COCCN1c1cc(-c2ccnn2C)c2ccnc(-c3ccn[nH]3)c2n1 (stereo not drawn) + Nc1ccc(C#CCN(C(=O)Cc2ncc(C(F)(F)F)cc2C(F)(F)F)c2ccc(F)cc2)nn1
IC50 (second compound 0.0316 µM): 592 nM
IC50 (second compound 0.1 µM): 444 nM
IC50 (second compound 0.316 µM): 508 nM
IC50 (second compound 1 µM): 651 nM
IC50 (second compound 3.16 µM): 570 nM
IC50 (second compound 10 µM): 895 nM
viability, T/C [1]: 104%
viability, T/C [2]: 83.7%
viability, T/C [3]: 59.6%
viability, T/C [4]: 37%
viability, T/C [5]: 44%
viability, T/C [6]: 46.1%
viability, T/C [7]: 101%
viability, T/C [8]: 86.1%
viability, T/C [9]: 54.1%
viability, T/C [10]: 38.7%
viability, T/C [11]: 40.2%
viability, T/C [12]: 46.2%
viability, T/C [13]: 96.8%
viability, T/C [14]: 93.5%
viability, T/C [15]: 53.6%
viability, T/C [16]: 35.5%
viability, T/C [17]: 45.6%
viability, T/C [18]: 54.2%
viability, T/C [19]: 95.8%
viability, T/C [20]: 84.5%
viability, T/C [21]: 61.4%
viability, T/C [22]: 40.2%
viability, T/C [23]: 41.2%
viability, T/C [24]: 45%
viability, T/C [25]: 100%
viability, T/C [26]: 81.9%
viability, T/C [27]: 59.6%
viability, T/C [28]: 36.5%
viability, T/C [29]: 42%
viability, T/C [30]: 47.1%
viability, T/C [31]: 97.8%
viability, T/C [32]: 85.9%
viability, T/C [33]: 63.9%
viability, T/C [34]: 43.5%
viability, T/C [35]: 46.3%
viability, T/C [36]: 50.8%

CC1COCCN1c1cc(C2(S(C)(=N)=O)CC2)nc(-c2ccnc3[nH]ccc23)n1 (stereo not drawn) + Nc1ccc(C#CCN(C(=O)Cc2ncc(C(F)(F)F)cc2C(F)(F)F)c2ccc(F)cc2)nn1
IC50 (second compound 0.0316 µM): 5870 nM
IC50 (second compound 0.1 µM): 6810 nM
IC50 (second compound 0.316 µM): 6000 nM
IC50 (second compound 1 µM): 7000 nM
IC50 (second compound 3.16 µM): 6400 nM
IC50 (second compound 10 µM): 7130 nM
viability, T/C [1]: 101%
viability, T/C [2]: 90.6%
viability, T/C [3]: 102%
viability, T/C [4]: 93.7%
viability, T/C [5]: 68%
viability, T/C [6]: 34.5%
viability, T/C [7]: 106%
viability, T/C [8]: 98.6%
viability, T/C [9]: 102%
viability, T/C [10]: 100%
viability, T/C [11]: 69.6%
viability, T/C [12]: 40.1%
viability, T/C [13]: 114%
viability, T/C [14]: 100%
viability, T/C [15]: 99.4%
viability, T/C [16]: 90%
viability, T/C [17]: 67.9%
viability, T/C [18]: 35.5%
viability, T/C [19]: 103%
viability, T/C [20]: 108%
viability, T/C [21]: 100%
viability, T/C [22]: 96%
viability, T/C [23]: 77%
viability, T/C [24]: 37.8%
viability, T/C [25]: 99.2%
viability, T/C [26]: 100%
viability, T/C [27]: 101%
viability, T/C [28]: 100%
viability, T/C [29]: 68%
viability, T/C [30]: 38.5%
viability, T/C [31]: 102%
viability, T/C [32]: 101%
viability, T/C [33]: 102%
viability, T/C [34]: 105%
viability, T/C [35]: 72.7%
viability, T/C [36]: 40.5%

CCCS(=O)(=O)Nc1ccc(F)c(C(=O)c2c[nH]c3ncc(-c4ccc(Cl)cc4)cc23)c1F + Nc1ccc(C#CCN(C(=O)Cc2ncc(C(F)(F)F)cc2C(F)(F)F)c2ccc(F)cc2)nn1
IC50 (second compound 0.0316 µM): > 10000 nM
IC50 (second compound 0.1 µM): > 10000 nM
IC50 (second compound 0.316 µM): > 10000 nM
IC50 (second compound 1 µM): > 10000 nM
IC50 (second compound 3.16 µM): > 10000 nM
IC50 (second compound 10 µM): > 10000 nM
viability, T/C [1]: 109%
viability, T/C [2]: 95.2%
viability, T/C [3]: 109%
viability, T/C [4]: 98.3%
viability, T/C [5]: 121%
viability, T/C [6]: 66.9%
viability, T/C [7]: 106%
viability, T/C [8]: 107%
viability, T/C [9]: 104%
viability, T/C [10]: 99.9%
viability, T/C [11]: 101%
viability, T/C [12]: 67.9%
viability, T/C [13]: 102%
viability, T/C [14]: 98.7%
viability, T/C [15]: 99.4%
viability, T/C [16]: 102%
viability, T/C [17]: 101%
viability, T/C [18]: 83.6%
viability, T/C [19]: 98%
viability, T/C [20]: 107%
viability, T/C [21]: 97.9%
viability, T/C [22]: 110%
viability, T/C [23]: 125%
viability, T/C [24]: 94.1%
viability, T/C [25]: 101%
viability, T/C [26]: 102%
viability, T/C [27]: 98.4%
viability, T/C [28]: 99.9%
viability, T/C [29]: 113%
viability, T/C [30]: 86.6%
viability, T/C [31]: 105%
viability, T/C [32]: 106%
viability, T/C [33]: 99.6%
viability, T/C [34]: 110%
viability, T/C [35]: 118%
viability, T/C [36]: 78.1%

COc1cccc(OCCCN)c1-c1cc(Nc2cnc(C#N)cn2)n[nH]1 + Nc1ccc(C#CCN(C(=O)Cc2ncc(C(F)(F)F)cc2C(F)(F)F)c2ccc(F)cc2)nn1
IC50 (second compound 0.0316 µM): 26.9 nM
IC50 (second compound 0.1 µM): 25.7 nM
IC50 (second compound 0.316 µM): 27.1 nM
IC50 (second compound 1 µM): 28.1 nM
IC50 (second compound 3.16 µM): 29.1 nM
IC50 (second compound 10 µM): 26.9 nM
viability, T/C (second compound 0.0316 µM, first compound 0.00316 µM): 102%
viability, T/C (second compound 0.0316 µM, first compound 0.01 µM): 86%
viability, T/C [1]: 44.1%
viability, T/C [2]: 37.4%
viability, T/C [3]: 40.7%
viability, T/C [4]: 35.3%
viability, T/C (second compound 0.1 µM, first compound 0.00316 µM): 102%
viability, T/C (second compound 0.1 µM, first compound 0.01 µM): 78.4%
viability, T/C [7]: 43.5%
viability, T/C [8]: 39.4%
viability, T/C [9]: 35%
viability, T/C [10]: 36.3%
viability, T/C (second compound 0.316 µM, first compound 0.00316 µM): 102%
viability, T/C (second compound 0.316 µM, first compound 0.01 µM): 81.4%
viability, T/C [13]: 45.2%
viability, T/C [14]: 38.3%
viability, T/C [15]: 37.5%
viability, T/C [16]: 39.2%
viability, T/C (second compound 1 µM, first compound 0.00316 µM): 96.8%
viability, T/C (second compound 1 µM, first compound 0.01 µM): 87.5%
viability, T/C [19]: 45.7%
viability, T/C [20]: 40.6%
viability, T/C [21]: 40.1%
viability, T/C [22]: 40.5%
viability, T/C (second compound 3.16 µM, first compound 0.00316 µM): 101%
viability, T/C (second compound 3.16 µM, first compound 0.01 µM): 85.2%
viability, T/C [25]: 47.2%
viability, T/C [26]: 44.6%
viability, T/C [27]: 45.3%
viability, T/C [28]: 40.9%
viability, T/C (second compound 10 µM, first compound 0.00316 µM): 99.5%
viability, T/C (second compound 10 µM, first compound 0.01 µM): 66.7%
viability, T/C [31]: 46.7%
viability, T/C [32]: 43.1%
viability, T/C [33]: 52.2%
viability, T/C [34]: 46.8%
